The values that follow are results of earlier work, collected in US20110008426A1, “MODIFIED RELEASE PHARMACEUTICAL COMPOSITIONS COMPRISING MYCOPHENOLATE AND PROCESSES THEREOF” (priority 2008, published 2011).

The structures appear in SMILES notation. Values joined by “and” are separate entries in the source; they are usually repeats but may differ in a detail not shown here. Equal entries are not always repeated. Where two headings read alike, the source gives them in different places.

The conditions of data set [1]: MMF 1 g b.i.d; EC-MPS 720 mg b.i.d.
The conditions of data set [2]: 423 de novo kidney allograft recipients.
Experiment in data set [3]: not given
The source holds these as a separate data set.

Experiment in data set [4]: not given
The source holds these as a separate data set.

The conditions of data set [5]: transplant patients, acute rejection.
Setting [6] is: controlled de novo and maintenance renal studies, patients.

For the compound `COc1c(C)c2c(c(O)c1C/C=C(\C)CCC(=O)OCCN1CCOCC1)C(=O)OC2` [MMF, mycophenolate mofetil], under setting [6], the “Adverse Events: Anemia” value is on record as 21.6%, the “Adverse Events: CMV infections” value is reported as 20.2%, the “Adverse Events: Constipation” value is 38.0% and the “Adverse Events: Diarrhoea” value was 24.8%. In addition, under setting [6], the “Adverse Events: Dyspepsia” value is given as 22.5%, the “Adverse Events: Insomnia” value is recorded as 23.5%, the “Adverse Events: Leukopenia” value is 19.2% and the “Adverse Events: Nausea” value is 29.1%. Under setting [6], the “Adverse Events: Urinary Tract Infection” value is listed as 29.1% and the “Adverse Events: Vomiting” value was 20%. Besides, the “Cmax of MPA” value in data set [1] was 21300 ng/mL. Also, in data set [2], the “incidence of GI adverse events” value is listed as 77.1%. Moreover, in data set [3] (www.rxlist.com), the “adverse effects: CMV infection” value is given as 18.1%; the “adverse effects: blood and lymphatic system disorders” value is recorded as 42.4%; the “adverse effects: constipation” value is reported as 39.5%; the “adverse effects: diarrhea” value is on record as 24.8%. In data set [3] (www.rxlist.com), the “adverse effects: nausea” value is 27.1%, the “adverse effects: urinary tract infections” value is on record as 33.3% and the “adverse effects: vomiting” value is reported as 20%.
For `COc1c(C)c2c(c(O)c1C/C=C(\C)CCC(=O)O)C(=O)OC2` [MPS, mycophenolate sodium], under setting [6], the “Adverse Events: Anemia” value was 21.9%, the “Adverse Events: Constipation” value is given as 39.5%, the “Adverse Events: Diarrhoea” value is 23.5% and the “Adverse Events: Dyspepsia” value is 19%. Also, under setting [6], the “Adverse Events: Insomnia” value is on record as 23.8%, the “Adverse Events: Leukopenia” value is listed as 20.5%, the “Adverse Events: Nausea” value is 27.1% and the “Adverse Events: Urinary Tract Infection” value was 33.3%. For the same compound, the “Adverse Events: Vomiting” value under setting [6] was 23%. Also, for the setting “in vivo”, the “Adverse Events: CMV infections” value is reported as 18.1%. Moreover, the “solubility of the drug” value in data set [4] (pH above 6.0) is “high solubility”. In addition, the “solubility of the drug” value in data set [4] (pH below 6.0) is “poor solubility”. Besides, the “Cmax of MPA” value in data set [1] is 18930 ng/mL. Moreover, in data set [2], the “incidence of GI adverse events” value is reported as 79.8%. The “adverse effects: CMV infection” value in data set [3] (in vivo) is 20.2%. Further, in data set [3] (www.rxlist.com), the “adverse effects: blood and lymphatic system disorders” value was 41.8%; the “adverse effects: constipation” value is 38%; the “adverse effects: diarrhea” value was 23.5%; the “adverse effects: nausea” value is listed as 29%. For the same compound, in data set [3] (www.rxlist.com), the “adverse effects: urinary tract infections” value was 29.1% and the “adverse effects: vomiting” value was 23%.
Regarding `COc1c(C)c2c(c(O)c1C/C=C(\C)CCC(=O)O)C(=O)OC2` [mycophenolic acid, Mycophenolic acid], in data set [5], the “mycophenolic acid AUC expected to yield 50% of maximal achievable efficacy” value is 15 µg·h/mL; the “mycophenolic acid AUC that would yield 90% efficacy” value was 25 µg·h/mL and 40 µg·h/mL.
